# Experiments:
# [1] = molecular target: T1, human P2X7 (Homo sapiens, UniProt Q99572); test: YO-PRO-1 dye uptake assay in HEK-hP2X7 cells; assay type: cell-based; conditions: for Effect of AZ10606120 pretreatment on response to ATP + glycoside (P2X7 dependence): 10 µM AZ10606120 pretreatment
# T1 construct: expressed in transfected cells
# T1 sequence (Q99572 1-595): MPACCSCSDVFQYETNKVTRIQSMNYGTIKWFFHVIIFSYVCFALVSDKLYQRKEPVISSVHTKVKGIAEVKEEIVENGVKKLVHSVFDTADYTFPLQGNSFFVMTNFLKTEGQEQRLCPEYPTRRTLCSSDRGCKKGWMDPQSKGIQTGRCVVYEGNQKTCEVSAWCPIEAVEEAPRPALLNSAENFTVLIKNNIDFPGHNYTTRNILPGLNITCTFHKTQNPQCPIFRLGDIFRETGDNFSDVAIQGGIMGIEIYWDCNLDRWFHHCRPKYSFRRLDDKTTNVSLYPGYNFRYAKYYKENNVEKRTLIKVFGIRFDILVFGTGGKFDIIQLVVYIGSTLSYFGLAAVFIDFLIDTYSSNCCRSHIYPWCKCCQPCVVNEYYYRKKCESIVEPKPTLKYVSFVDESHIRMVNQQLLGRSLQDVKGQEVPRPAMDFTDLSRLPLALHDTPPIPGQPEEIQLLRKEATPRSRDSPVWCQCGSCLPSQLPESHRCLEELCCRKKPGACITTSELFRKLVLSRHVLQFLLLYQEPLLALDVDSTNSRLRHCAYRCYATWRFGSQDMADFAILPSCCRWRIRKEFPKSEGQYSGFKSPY
# Method: ATP-induced dye uptake experiments were performed as described previously ([Bidula et al., 2019b]). Briefly, HEK-hP2X7 cells were plated at 2 × 10^4 cells per well (100 μl per well) in complete medium and left overnight to attach to poly-D-lysine–coated 96-well plates. YO-PRO-1 iodide was prepared in a low divalent buffered solution ([…], 2 mM KCl, 13 mM D-glucose, 10 mM HEPES, 0.2 mM CaCl2 pH 7.3) to a final concentration of 2 μM. Medium was removed from the plate using a manual multichannel pipette and YO-PRO-1 containing buffer applied to wells (180 μl per well). […] A Flexstation 3 plate reader (Molecular Devices, Sunnyvale, CA) was used to record YO-PRO-1 fluorescence in HEK-hP2X7 for 300 seconds after the addition of ATP (at 10× final concentration) with/without ginsenoside compounds or vehicle (DMSO). Plates were allowed to warm up to 37°C for 10 minutes before initiating the recording. Baseline recordings were made for 40 seconds before compound addition using the Flexstation 3 fluidics system. YO-PRO-1 fluorescence was measured at 520 nm after excitation at 490 nm (auto cutoff at 495 nm), and the sample interval was 3.5 seconds. Flexstation settings were photomultiplier tube (PMT) medium, six reads per well, pipette height 170, and a rate of injection of 3. Data were acquired using Softmax Pro version 5.4 (Molecular Devices). To analyze the data, area under the dye uptake curve was calculated in Softmax Pro version 5 using zero baseline data with a lag time of 50 seconds (50–300 seconds).
# (§1) Results are expressed as means ± S.D. from the indicated number of experiments. For YO-PRO-1 dye uptake and intracellular calcium experiments, each independent experiment used triplicate wells, and the means of the replicates were collated and plotted. Technical replicates were used to ensure reliability of fluorescence values. […] Dose-response curves were plotted by a nonlinear regression fit with variable slope using GraphPad Prism software version 7. Half-maximal responses are expressed as EC50 values with 95% confidence intervals. These values were calculated from the collated data for each compound from three independent experiments. Statistical differences were determined by analysis of the data by one-way ANOVA followed by Dunnett’s multiple comparison test or Sidak’s multiple comparison test using GraphPad Prism version 7. P < 0.05 was the accepted minimum level of significance.
# [2] = system: THP-1 cells; test: Cell viability assay (resazurin/Alamar blue) in THP-1 cells; assay type: cell-based, human; conditions: 500 µM ATP
# Method: (§2) HEK-hP2X7 or THP-1 cells were seeded at 5 × 10^3 cells per well in a volume of 100 μl for 24 hours in 96-well plates (Nunclon Edge plates, catalog number 167425; Thermo Scientific). Cells were plated in DMEM:F12 medium or RPMI 1640 medium containing 1% FBS and penicillin/streptomycin for 24 hours in a humidified incubator at 37°C with a constant supply of 5% CO2. Edge wells of the plates were filled with autoclaved distilled water to prevent evaporation of media from wells containing cells. The compounds and ATP were made at 2× final concentration in 1% FBS DMEM:F12 and 100 μl added to the cells for 24 hours. After incubation, resazurin sodium salt (CAS 62758-13-8; Sigma Aldrich) at 0.1 mg/ml in sterile PBS was added to the plate (20 into 200 µl culture medium per well). Cells were incubated for a further 2 hours in a humidified incubator at 37°C with a supply of 5% CO2. A Flexstation 3 microplate reader was used to acquire data. Endpoint fluorescence data were measured using 570 nm excitation wavelength, 600 nm emission wavelength (cutoff at 590 nm), and three reads per well (PMT low). Data were analyzed by performing background correction through subtracting blank medium readings (without cells) from all samples and then normalizing each sample to medium treated cells (control treatment, 100%) as percentage of control.
# Results are expressed as means ± S.D. from the indicated number of experiments. For YO-PRO-1 dye uptake and intracellular calcium experiments, each independent experiment used triplicate wells, and the means of the replicates were collated and plotted. Technical replicates were used to ensure reliability of fluorescence values. Cell viability data were normalized to the vehicle control for each experiment after background correction had been performed. […] These values were calculated from the collated data for each compound from three independent experiments. Statistical differences were determined by analysis of the data by one-way ANOVA followed by Dunnett’s multiple comparison test or Sidak’s multiple comparison test using GraphPad Prism version 7. […]
# [3] = system: HEK-hP2X7 cells; test: Cell viability assay (resazurin/Alamar blue) in HEK-hP2X7 cells; assay type: cell-based, human; conditions: 24 hours
# Method: as §2
# Results are expressed as means ± S.D. from the indicated number of experiments. For YO-PRO-1 dye uptake and intracellular calcium experiments, each independent experiment used triplicate wells, and the means of the replicates were collated and plotted. Technical replicates were used to ensure reliability of fluorescence values. Cell viability data were normalized to the vehicle control for each experiment after background correction had been performed. Dose-response curves were plotted by a nonlinear regression fit with variable slope using GraphPad Prism software version 7. Half-maximal responses are expressed as EC50 values with 95% confidence intervals. These values were calculated from the collated data for each compound from three independent experiments. Statistical differences were determined by analysis of the data by one-way ANOVA followed by Dunnett’s multiple comparison test or Sidak’s multiple comparison test using GraphPad Prism version 7. P < 0.05 was the accepted minimum level of significance.
# [4] = molecular target: T1, human P2X7; set-up: method as in Helliwell et al., 2015; conditions: ref Helliwell et al., 2015; cited from earlier work
# [5] = molecular target: T2, endogenous P2X7 in THP-1 cells (Homo sapiens, UniProt Q99572); test: Fura-2 calcium measurements in THP-1 monocytes; assay type: cell-based; conditions: 500 µM ATP co-applied with 10 µM glycoside
# T2 sequence (Q99572 1-394 limits assumed): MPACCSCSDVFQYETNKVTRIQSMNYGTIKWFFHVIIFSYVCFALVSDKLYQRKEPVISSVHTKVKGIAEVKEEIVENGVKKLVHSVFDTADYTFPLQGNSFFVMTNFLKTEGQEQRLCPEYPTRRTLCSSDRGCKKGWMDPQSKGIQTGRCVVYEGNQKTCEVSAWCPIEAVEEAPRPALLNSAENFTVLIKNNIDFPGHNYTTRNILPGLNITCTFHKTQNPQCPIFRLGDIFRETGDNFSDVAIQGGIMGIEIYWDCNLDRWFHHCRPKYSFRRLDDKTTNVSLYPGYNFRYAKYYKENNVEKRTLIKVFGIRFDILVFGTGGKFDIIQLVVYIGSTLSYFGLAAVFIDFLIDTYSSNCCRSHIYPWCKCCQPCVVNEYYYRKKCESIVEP
# Method: THP-1 cells were pelleted by centrifugation (300g, 5 minute), washed, and resuspended in Hanks’ balanced salt solution buffer containing 2 μM fura-2 AM (HelloBio) and 250 μM (±)-sulfinpyrazone. Cells were loaded for 1 hour in a waterbath at 37°C while shielded from light with foil. Loaded cells were washed once with 5 ml Hanks’ balanced salt solution to remove excess fura-2 AM dye. THP-1 cells were then resuspended, counted, and plated at 2 × 10^5 cells per well in a standard clear 96-well plate (NUNC 167008; Thermo Scientific) in low divalent assay buffer without Mg^2+ (145 mM NaCl, 2 mM KCl and 2 mM CaCl2, 13 mM glucose, 10 mM HEPES, pH 7.3) containing 250 μM (±)-sulfinpyrazone. The 10× concentration of agonist (ATP) was prepared in the same assay buffer. ATP was injected automatically into wells at 30 seconds in a Flexstation 3 microplate reader. Ratiometric data were acquired using 340 and 380 nm for excitation wavelengths, 520 nm as the emission wavelength, and six reads per well (PMT medium). Area under the curve was calculated using standard zero baseline normalization with a lag time 0–300 seconds using SoftMax Pro version 5.4 software.
# as §1
# [6] = system: nontransfected HEK-293 cells; test: YO-PRO-1 dye uptake in parental nontransfected HEK-293 cells; assay type: cell-based, human; conditions: drug alone
structure (smiles),measurement,setting,value
"Nc1ncnc2c1ncn2[C@@H]1O[C@H](COP(=O)(O)OP(=O)(O)OP(=O)(O)O)[C@@H](O)[C@H]1O [ATP, reference compound]",EC50,"[1]; average, n = 5 experiments, HEK-hP2X7, read-out: EC50 for ATP + vehicle (DMSO)",219 µM
same,Cell viability after ATP,[2]; 24 hours,73.3% ± 14.4%
"Cl.Cl.O=C(CC12CC3CC(CC(C3)C1)C2)Nc1cccc2nc(NCCNCCO)ccc12 [AZ10606120, reference compound]",Antagonist effect on loss of viability by ATP + ginsenoside-F2 or 20(S)-Rg3,[3]; AZ10606120 pretreatment,prevented
same,Antagonist effect on ATP-induced loss of viability,[2],lack of effect
CC(C)=CCCC(C)(OC1OC(CO)C(O)C(O)C1O)C1CCC2(C)C1C(O)CC1C3(C)CCC(O)C(C)(C)C3CCC12C (stereo not shown) [Ginsenoside-CK],PAM activity at human P2X7,[4],highest activity
same,Effect of AZ10606120 pretreatment on response to ATP + glycoside (P2X7 dependence),[1],abolished
same,PAM effect on ATP dose-response curve,"[1]; 10 µM glycoside, HEK-hP2X7, result in words",mixed type I/II effects
same,Maximum response (fold increase),"[1]; maximum response defined at 1 mM ATP, 10 µM glycoside",2.4–4.4 fold
same,Cell viability in combination with ATP,[3],very effective at enhancing cell death
same,Enhancement of ATP-induced cell death,[2]; 24 hours,could significantly enhance this ATP-induced cell death
same,Effect on ATP-induced calcium response,[5],increased the peak response and the sustained elevation in [Ca^2+]i
"C[C@H]1O[C@@H](O[C@H]2CC[C@@]3(C)[C@@H](CC[C@]4(C)[C@@H]3C=C[C@]35OC[C@@]6(CCC(C)(C)C[C@H]63)[C@@H](O)C[C@]54C)[C@]2(C)CO)[C@H](O)[C@@H](O[C@@H]2O[C@H](CO)[C@@H](O)[C@H](O)[C@H]2O)[C@H]1O [Saikosaponin A, saikosaponin A]",YO-PRO-1 uptake in nontransfected HEK-293 cells (no P2X7),[6],could induce YO-PRO-1 uptake
same,Effect of AZ10606120 pretreatment on response to ATP + glycoside (P2X7 dependence),[1],unaffected by AZ10606120 pretreatment
same,ATP-induced YO-PRO-1 response in fixed-concentration screen,"[1]; 200 µM ATP, 10 µM glycoside, compared with ATP + DMSO",large increase
same,Toxic effect on cells,[1]; YO-PRO-1 uptake without ATP or without P2X7,toxic effect on the cells
same,YO-PRO-1 uptake in HEK-hP2X7 cells in the absence of ATP,[1]; drug alone,could induce YO-PRO-1 uptake
